Measured values reported in patent publication US20240254129A1, “HETEROCYCLIC COMPOUNDS AND USES THEREOF” (Kumquat Biosciences Inc., priority 2021, published 2024).
Where two headings read alike, the source gives them in different places.

Columns and labels:
[1] = target: GST-tagged K-Ras mutant / His-tagged hSOS1 (Homo sapiens, UniProt P01116); test: HTRF assay, K-Ras mutant / SOS1 interaction; format: binding; details: read-out: IC50 against mutant Kras
Method in brief: (§1)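 Tagged proteins: GST-K-Ras (wt or mutant), His-hSOS1; labels anti-GST-Eu/anti-6His-XL665; HEPES pH 7.4 buffer with DTT, BSA, Igepal. Read ≥10 min post-mix at ex 337 nm; IC50 from ratiometric data, duplicates.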

[2] = target: T1, wildtype Kras / hSOS1 (Homo sapiens, UniProt P01116); test: HTRF assay, wildtype Kras / SOS1 interaction; format: binding; details: read-out: IC50 against wildtype Kras
T1 construct: made in house; host or cells: E. coli BL21 (DE3)
T1 sequence (P01116 1-188 isoform P01116-2): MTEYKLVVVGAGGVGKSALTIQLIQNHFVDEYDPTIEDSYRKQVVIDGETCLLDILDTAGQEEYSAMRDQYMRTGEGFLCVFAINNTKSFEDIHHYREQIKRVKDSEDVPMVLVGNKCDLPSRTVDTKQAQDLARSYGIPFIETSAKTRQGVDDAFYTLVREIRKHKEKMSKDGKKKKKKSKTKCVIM
Method in brief: as §1

[3] = compound nos. 102-196, general methodology of example 5
[4] = compound nos. 201-213, general methodology of example 5

Chain of GST-tagged K-Ras mutant / His-tagged hSOS1 (P01116 whole entry G12D, form open): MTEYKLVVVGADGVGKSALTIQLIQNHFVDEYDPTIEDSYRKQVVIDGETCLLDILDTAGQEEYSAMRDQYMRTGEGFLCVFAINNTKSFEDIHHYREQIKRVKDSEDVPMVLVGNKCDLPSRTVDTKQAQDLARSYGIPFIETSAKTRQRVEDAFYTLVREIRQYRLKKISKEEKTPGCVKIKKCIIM

SMILES	IC50 ([1]; compound nos. 401-703) [nM]	IC50 ([2]; compound nos. 401-703) [nM]	other results
CN1CCC[C@H]1COc1nc(N2CCCC(O)CC2)c2cc(Cl)c(-c3cccc4sc(N)nc34)c(F)c2n1 (stereo partly drawn) [Compound 173, 1-(7-(2-aminobenzo[d]-thiazol-4-yl)-6-chloro-8-fluoro-2-(((S)-1-methyl-pyrrolidin-2-yl)methoxy)-quinazolin-4-yl)azepan-4-ol]	–	–	IC50 [1, 3]: < 500 nM; IC50 [2, 3]: < 500 nM
Fc1c(-c2cccc3sccc23)c(Cl)cc2c(N3CC4CCC(C3)N4)nc(OC[C@@]34CCCN3C[C@H](F)C4)nc12 [Compound 579, 7-(benzo[b]thiophen-4-yl)-4-(3,8-diazabicyclo[3.2.1]-octan-3-yl)-6-chloro-8-fluoro-2-(((2R,7aS)-2-fluorotetrahydro-1H-pyrrol-izin-7a(5H)-yl)methoxy)-quinazoline]	> 500	> 500	–
Oc1cc(-c2ncc3c(N4C[C@H]5CC[C@@H](C4)N5)nc(OC[C@@]45CCCN4C[C@H](F)C5)nc3n2)c2ccccc2c1 [Compound 418, 4-(5-((1R,5S)-3,8-diazabicyclo[3.2.1]octan-3-yl)-7-(((2R,7aS)-2-fluorotetrahydro-1H-pyrrolizin-7a(5H)-yl)methoxy)pyrimido[4,5-d]pyrimidin-2-yl)naphthalen-2-ol]	> 500	< 500	–
Nc1nc2c(-c3c(Cl)cc4c(N5C[C@H]6CC[C@@H](C5)N6)nc(OC[C@@]56CCCN5C[C@H](F)C6)nc4c3F)ccc(F)c2s1 [Compound 206, 4-(4-((1R,5S)-3,8-diaza-bicyclo[3.2.1]octan-3-yl)-6-chloro-8-fluoro-2-(((2R,7aS)-2-fluorotetra-hydro-1H-pyrrolizin-7a(5H)-yl)methoxy)quinazolin-7-yl)-7-fluorobenzo[d]thiazol-2-amine]	–	–	IC50 [1, 4]: < 1500 nM; IC50 [2, 4]: < 1500 nM
Nc1nc2c(-c3c(Cl)cc4c(N5C[C@H]6CC[C@@H](C5)[C@@H]6N)nc(OCC56CCCN5CCC6)nc4c3F)ccc(F)c2s1 [Compound 413, 4-(4-((1R,5S,8s)-8-amino-3-azabicyclo[3.2.1]octan-3-yl)-6-chloro-8-fluoro-2-((tetra-hydro-1H-pyrrolizin-7a(5H)-yl)methoxy)quinazolin-7-yl)-7-fluorobenzo[d]thiazol-2-amine]	< 500	< 500	–
CNCCN1[C@@H]2CC[C@H]1CN(c1nc(OCC34CCCN3CCC4)nc3c(F)c(-c4ccc(F)c5sc(N)nc45)c(Cl)cc13)C2 [Compound 656, 4-(6-chloro-8-fluoro-4-((1R,5S)-8-(2-(methyl-amino)-ethyl)-3,8-diaza-bicyclo[3.2.1]octan-3-yl)-2-((tetrahydro-1H-pyrrol-izin-7a(5H)-yl)methoxy)-quinazolin-7-yl)-7-fluoro-benzo[d]thiazol-2-amine]	< 500	> 500	–
CN1CCC[C@H]1COc1nc(N2CCCC(n3ccnc3)CC2)c2cc(Cl)c(-c3cccc4sc(N)nc34)c(F)c2n1 (stereo partly drawn) [Compound 490, 4-(4-(4-(1H-imidazol-1-yl)-azepan-1-yl)-6-chloro-8-fluoro-2-(((S)-1-methylpyr-rolidin-2-yl)methoxy)quin-azolin-7-yl)benzo[d]thiazol-2-amine]	> 500	< 500	–
Oc1cc(N2CCc3nc(OCC45CCCN4CCC5)nc(N4C[C@H]5CC[C@@H](C4)N5)c3CC2)c2ccccc2c1 [Compound 521, 4-(4-((1R,5S)-3,8-diazabicyclo[3.2.1]octan-3-yl)-2-((tetrahydro-1H-pyrrolizin-7a(5H)-yl)methoxy)-5,6,8,9-tetrahydro-7H-pyrimido[4,5-d]azepin-7-yl)naphthalen-2-ol]	> 500	> 500	–
CNCC1CN(c2nc(OCC34CCCN3CCC4)nc3c(F)c(-c4ccc(F)c5sc(N)nc45)c(Cl)cc23)CCCO1 (centres unmarked) [Compound 481, 4-(6-chloro-8-fluoro-4-(2-((methylamino)methyl)-1,4-oxazepan-4-yl)-2-((tetra-hydro-1H-pyrrolizin-7a(5H)-yl)methoxy)quinazolin-7-yl)-7-fluorobenzo[d]thiazol-2-amine]	< 500	< 500	–
Nc1cccc(-c2ccccc2-c2c(Cl)cc3c(N4CCCCCC4)nc(OCC45CCCN4CCC5)nc3c2F)c1 [Compound 666, 2′-(4-(azepan-1-yl)-6-chloro-8-fluoro-2-((tetrahydro-1H-pyrrolizin-7a(5H)-yl)meth-oxy)quinazolin-7-yl)-[1,1′-biphenyl]-3-amine]	> 500	> 500	–
Nc1ccc2cccc(-c3c(Cl)cc4c(N5CC6CCC(C5)N6)nc(OCC56CCCN5CCC6)nc4c3F)c2n1 [Compound 597, 8-(4-(3,8-diazabicyclo-[3.2.1]octan-3-yl)-6-chloro-8-fluoro-2-((tetrahydro-1H-pyrrolizin-7a(5H)-yl)meth-oxy)quinazolin-7-yl)quin-olin-2-amine]	> 500	> 500	–
CN1CCC[C@H]1COc1nc(N2CCNCC(F)(F)C2)c2cc(Cl)c(-c3cccc4sc(N)nc34)c(OCc3ccccn3)c2n1 [Compound 155, 4-(6-chloro-4-(6,6-difluoro-1,4-diazepan-1-yl)-2-(((S)-1-methylpyrrolidin-2-yl)-methoxy)-8-(pyridin-2-yl-methoxy)quinazolin-7-yl)-benzo[d]thiazol-2-amine]	–	–	IC50 [1, 3]: > 500 nM; IC50 [2, 3]: > 500 nM
CN1CCC[C@H]1COc1nc(N2CCCC(NC3CNC3)CC2)c2cc(Cl)c(-c3cccc4sc(N)nc34)c(F)c2n1 (stereo partly drawn) [Compound 554, 4-(4-(4-(azetidin-3-yl-amino)azepan-1-yl)-6-chloro-8-fluoro-2-(((S)-1-methylpyrrolidin-2-yl)-methoxy)quinazolin-7-yl)-benzo[d]thiazol-2-amine]	> 500	> 500	–
Nc1nc2c(-c3c(Cl)cc4c(N5CCN(Cc6cncnc6)CC(F)(F)C5)nc(OC[C@@]56CCCN5C[C@H](F)C6)nc4c3F)ccc(F)c2s1 [Compound 649, 4-(6-chloro-4-(6,6-difluoro-4-(pyrimidin-5-ylmethyl)-1,4-diazepan-1-yl)-8-fluoro-2-(((2R,7aS)-2-fluorotetra-hydro-1H-pyrrolizin-7a(5H)-yl)methoxy)quinazolin-7-yl)-7-fluorobenzo[d]thiazol-2-amine]	< 500	> 500	–
Oc1ccc2c(c1)N(c1ccc3c(N4CCCCCC4)nc(OCC45CCCN4CCC5)nc3c1F)CCC2 [Compound 584, 1-(4-(azepan-1-yl)-8-fluoro-2-((tetrahydro-1H-pyrrol-izin-7a(5H)-yl)methoxy)-quinazolin-7-yl)-1,2,3,4-tetrahydroquinolin-7-ol]	> 500	> 500	–
N#CN1CCN(c2nc(OCC34CCCN3CCC4)nc3c(F)c(-c4ccc(F)c5sc(N)nc45)c(Cl)cc23)CC(F)(F)C1 [Compound 551, 4-(7-(2-amino-7-fluorobenzo[d]thiazol-4-yl)-6-chloro-8-fluoro-2-((tetrahydro-1H-pyrrolizin-7a(5H)-yl)methoxy)quinazolin-4-yl)-6,6-difluoro-1,4-diazepane-1-carbonitrile]	< 500	> 500	–
Nc1nc2c(-c3c(Cl)cc4c(N5CCCOC(CO)C5)nc(OCC56CCCN5CCC6)nc4c3F)cccc2s1 (centres unmarked) [Compound 465, (4-(7-(2-aminobenzo[d]-thiazol-4-yl)-6-chloro-8-fluoro-2-((tetrahydro-1H-pyrrolizin-7a(5H)-yl)meth-oxy)quinazolin-4-yl)-1,4-oxazepan-2-yl)methanol]	< 500	< 500	–
CN(C)CC1(COc2nc(N3CC4CCC(C3)N4)c3cc(Cl)c(-c4cccc5oc(N)nc45)c(F)c3n2)CC1 [Compound 692, 4-(4-(3,8-diazabicyclo-[3.2.1]-octan-3-yl)-6-chloro-2-((1-((dimethylamino)-methyl)cyclopropyl)meth-oxy)-8-fluoroquinazolin-7-yl)benzo[d]oxazol-2-amine]	< 500	> 500	–
C#Cc1cccc2cc(O)cc(-c3ccc4c(N5CCNCC(F)(F)C5)nc(OC[C@@]56CCCN5C[C@H](F)C6)nc4c3F)c12 [Compound 609, 4-(4-(6,6-difluoro-1,4-diazepan-1-yl)-8-fluoro-2-(((2R,7aS)-2-fluorotetra-hydro-1H-pyrrolizin-7a(5H)-yl)methoxy)quin-azolin-7-yl)-5-ethynylnaph-thalen-2-ol]	< 500	> 500	–
CN1CCC[C@H]1COc1nc(N2CCCC(N3CC(N)C3)CC2)c2cc(Cl)c(-c3cccc4sc(N)nc34)c(F)c2n1 (stereo partly drawn) [Compound 441, 4-(4-(4-(3-aminoazetidin-1-yl)azepan-1-yl)-6-chloro-8-fluoro-2-(((S)-1-methyl-pyrrolidin-2-yl)methoxy)-quinazolin-7-yl)benzo[d]-thiazol-2-amine]	> 500	< 500	–
COc1nc2c(N3CC4CCC(C3)N4)nc(OC[C@@]34CCCN3C[C@H](F)C4)nc2cc1-c1cc(O)cc2ccccc12 [Compound 533, 4-(4-(3,8-diazabicyclo-[3.2.1]octan-3-yl)-2-(((2R,7aS)-2-fluorotetra-hydro-1H-pyrrolizin-7a(5H)-yl)methoxy)-6-methoxypyrido-[3,2-d]-pyrimidin-7-yl)naphthalen-2-ol]	> 500	> 500	–
CN1CCC[C@H]1COc1nc(N2CCNCC(F)(F)C2)c2cc(Cl)c(-c3cccc4sc(NCC(F)(F)F)nc34)c(F)c2n1 [Compound 149, 4-(6-chloro-4-(6,6-difluoro-1,4-diazepan-1-yl)-8-fluoro-2-(((S)-1-methylpyrrolidin-2-yl)methoxy)quinazolin-7-yl)-N-(2,2,2-trifluoroethyl)-benzo[d]thiazol-2-amine]	–	–	IC50 [1, 3]: > 500 nM; IC50 [2, 3]: > 500 nM
